Values quoted from earlier work, collected in patent US8404645B2, “Stable formulations of amylin and its analogues” (Novo Nordisk AS, priority 2007, dated 2013).
Where no end group is shown, it is not given here.

Details: treated test animals; provoking marked hyperlactemia followed by hyperglycemia
In the case of des-Lys1-h-amylin, the “Amylin activity in vivo” value is listed as “show amylin activity in vivo”. In the case of Pro25 Val26 Pro 28 Pro29-h-amylin, the “Amylin activity in vivo” value is given as “show amylin activity in vivo”. For Arg18 Pro25 Pro28-h-amylin, the “Amylin activity in vivo” value is given as “show amylin activity in vivo”. In the case of Arg18 Pro25 Pro 28-des-Lys1-h-amylin, the “Amylin activity in vivo” value is listed as “show amylin activity in vivo”. In the case of “Pro28-h-amylin (KCNTATCATQRLANFLVHSSNNFGAILPSTNVGSNTY; ends and bridges not checked; cysteine pairing not given here; UniProt P10997 34-70, looked up, variant S28P) [human amylin analog, Pro at position 28]”, the “Amylin activity in vivo” value is listed as “show amylin activity in vivo”.
